Conditions: 101.33 kPa, Liquid, Buoyancy - hydrostatic balance

CCCCCC[n+]1ccn(C)c1.O=S(=O)([N-]S(=O)(=O)C(F)(F)F)C(F)(F)F
Conditions	mass density [kg/m3]
262.98 K	1405.31
268.26 K	1400.21
272.74 K	1395.9
278.03 K	1390.98
283.18 K	1385.8
288.12 K	1381.67
292.84 K	1377.27
298.15 K	1372.76
303.13 K	1368.35
308.26 K	1362.94
313.34 K	1358.8
318.28 K	1354.33
323.34 K	1349.1
328.18 K	1345.78
332.77 K	1341.44
338.51 K	1336.76
343.65 K	1332.79
348.22 K	1328.79
352.66 K	1324.84
358.06 K	1320.79
364.78 K	1314.72

CCn1cc[n+](C)c1.O=S(=O)([N-]S(=O)(=O)C(F)(F)F)C(F)(F)F
Conditions	mass density [kg/m3]
261.46 K	1556.58
268.29 K	1548.72
273.3 K	1544.02
278.37 K	1539.04
282.48 K	1535.02
287.45 K	1529.96
293.11 K	1524.41
298.13 K	1519.52
302.98 K	1514.33
308.32 K	1508.35
313.89 K	1503.28
318.09 K	1498.65
323.34 K	1493.84
328.03 K	1488.18
333.55 K	1483.58
337.88 K	1479.01
342.95 K	1473.82
348.1 K	1469.36
352.98 K	1464.95
357.53 K	1460.04
363.55 K	1453.65

CCCCn1cc[n+](C)c1C.F[P-](F)(F)(F)(F)F [1-butyl-2,3-dimethylimidazolium hexafluorophosphate]
Conditions	mass density [kg/m3]
308.17 K	1342.4
313.09 K	1338.43
318.12 K	1334.34
323.15 K	1330.39
328.24 K	1326.32
333.37 K	1322.54
338.85 K	1318.34
343.33 K	1314.8
347.97 K	1310.87
352.71 K	1307.2
357.94 K	1302.89
364.63 K	1298.26

CCCC[n+]1cccc(C)c1.F[P-](F)(F)(F)(F)F [1-butyl-3-methylpyridinium hexafluorophosphate]
Conditions	mass density [kg/m3]
322.98 K	1321.09
327.57 K	1317.44
333.44 K	1312.89
338.78 K	1308.72
343.67 K	1304.93
348.19 K	1301.53
353.1 K	1297.87
358.08 K	1294.06
364.61 K	1289.01

CCCn1cc[n+](C)c1.F[P-](F)(F)(F)(F)F [1-methyl-3-propylimidazolium hexafluorophosphate]
Conditions	mass density [kg/m3]
303.08 K	1410.96
313.18 K	1402.37
318.04 K	1398.33
323.07 K	1393.53
328.22 K	1389.63
333.39 K	1385.32
338.41 K	1381.11
343.27 K	1377.03
348.16 K	1372.97
352.56 K	1369.14
358.11 K	1364.85
364.89 K	1359.36

C[n+]1cc[nH]c1.O=S(=O)([N-]S(=O)(=O)C(F)(F)F)C(F)(F)F [1-methylimidazolium bis(trifluoromethylsulfonyl)imide]
Conditions	mass density [kg/m3]
323.28 K	1614.04
325.58 K	1610.84
328.01 K	1607.46
330.51 K	1605.18
333.62 K	1601.54
335.65 K	1599.35
338.58 K	1596.52
340.97 K	1593.47
343.62 K	1590.71

CCCC[n+]1ccn(C)c1.O=S(=O)([N-]S(=O)(=O)C(F)(F)F)C(F)(F)F
Conditions	mass density [kg/m3]
274.86 K	1458.44
277.17 K	1456.4
281.91 K	1452.1
287.89 K	1446.21
293.45 K	1441.4
298.34 K	1436.71
303.07 K	1432.1
308.18 K	1426.64
313.04 K	1422.13
318.02 K	1417.45
323.1 K	1412.39
328.17 K	1407.64
333.42 K	1403.16
338.42 K	1398.52
343.02 K	1394.25
348.36 K	1389.71
352.89 K	1385.06
358.03 K	1380.66
364.37 K	1374.57
